Laboratory results reported in patent US9657110B2, “Polypeptides and use thereof” (ASTON UNIVERSITY, priority 2011, dated 2017).

Legend:
HOB cells = experiment: Cell adhesion assay (attachment and spreading) on FN or TG-FN matrix with RGD or RAD peptide; type: cell-based, human; conditions: for effect of PKCα inhibitors on the compensatory effect of P1 peptide on RGD-induced loss of cell adhesion: Go6976 5 μM, GK21 8 μM, P1 100 ug/ml, FN; for effect on the compensatory effects of TG-FN on attachment and spreading in the presence of RGD: HOB cells on TG-FN, peptide 100-400 μg/ml, RGD 150 μg/ml
Procedure: The cell adhesion assay was carried out as previously described (Wang et al., 2010). Briefly, 96-well plastic tissue culture plates were coated with 5 μg/ml FN in 50 mM Tris-HCl, pH 7.4 at 4° C. overnight, after washing three times with 100 μl of 50 mM Tris-HCl, pH7.4, gplTG (20 μg/ml) in 2 mM EDTA in PBS, pH 7.4 was added to the wells for 1 h at 37° C. and the wells were washed three times with 50 mM Tris-HCl, pH7.4. Serum-starved (for 16 h) HOB cells with different treatments as introduced below in serum-free medium were detached by trypsinization and then treated with trypsin inhibitor. Cells were washed three times with serum free medium and seeded onto either FN or TG-FN matrix for 20-40 min. Peptides P1 or scrambled P1 (P1s), were added at concentrations between 100 μg/ml and 300 μg/ml. […] Attached cells were washed once with PBS, pH 7.4 and then fixed with 3.7% paraformaldehyde, further permeabilised with 0.1% (v/v) Triton® X-100 detergent in PBS, and co-stained with May-Grunwald and Giemsa stains as described previously (Jones et al., 1997). Images of stained cells from non-overlapping fields of view were photographed at 20× magnification and analyzed using the imaging analysis program Scion Image (National Institute of Health). Cell attachment and spreading were quantified, and the number of cells per image was assessed as described previously (Telci et al., 2008). Cell attachment on FN without peptide was considered as the control value for all the experiments unless stated otherwise. The mean number of attached cells form three wells was calculated and that of the control was considered as 100%. The mean number of attached cells (cell attachment) for each sample was then expressed as the percentage of cell attachment on FN. The mean percentage of attached cells that are spread (cell spreading) for each sample was determined separately, and the mean percentage of spread cells on FN control was expressed as 100%. The mean percentage of spread cells for each sample was then normalised against that of FN control Cell attachment on FN without the RGD peptide was considered as the control value for most of the experiments unless stated otherwise The mean number of attached cells from three wells was calculated and that of the control was considered as 100%. The mean number of attached cells (cell attachment) for each sample was then expressed as the percentage of cell attachment on FN. The mean percentage of attached cells that are spread (cell spreading) for each sample was determined separately, and the mean percentage of spread cells on the FN control was expressed as 100%. The mean percentage of spread cells for each sample was then normalised against that of FN control Cell pre-treatments included: PKCα inhibitor Go6976 (5 μM) or GK21 peptide (8 μM) for 1 h in serum-free medium prior to cell detachment; heparinase (15 mU/ml) or chondroitinase (15 mU/ml) to cells in suspension in serum free medium for 1 h. For the detection of the signalling molecules via Western blotting, the cell adhesion assay was performed in 60 mm Petri dishes and cells were collected into cell lysis buffer (Santa Cruz, UK) as described previously and pre-cleared by centrifugation at 300×g for 10 min. Western blotting was performed with specific anti-p-397 FAK or p-ERK1/2 antibodies. Membranes were stripped (Telci et al., 2008) and total FAK and ERK1/2 detected using anti-FAK and anti-ERK1/2 antibodies as listed in Table 2, while α-tubulin was used as an equal loading standard (Wang et al., 2011).
Cell adhesion and spreading assays were performed as described above in Example 1 method ‘Cell adhesion assay’

[1] = Binding of TG2 to heparin SEPHAROSE, elution with NaCl gradient; conditions: for binding to heparin SEPHAROSE (in words): compared with wt TG2; for NaCl concentration of optimum elution / major peak from heparin SEPHAROSE: lysate of HEK293T/17 cells, 0-1M NaCl gradient
Procedure: HEK cells, transiently transfected with wild-type and mutant TG2 were washed twice with ice cold PBS, pH 7.4 and lysed by the addition of 150 μl of 20 mM Tris-HCl pH 7.4, 10 mM EGTA, 2 mM EDTA, 1 mM NaF and 1 mM Na3VO4. After clarification by centrifugation, lysates were mixed with 450 μl of 50 mM Tris-HCl, 1 mM EDTA, 1 mM DTT, pH 7.5 and applied to a 5 ml Heparin SEPHAROSE® column (GE Healthcare) equilibrated in 50 mM Tris-HCl, 1 mM EDTA, 1 mM DTT pH 7.5 (buffer) at a flow rate of 1 ml/min. For the analysis of GTP-bound TG2 (closed conformation), lysates were pre-incubated for 1 h at room temperature with 0.5 mM GTP in 50 mM Tris-HCl, 2 mM MgCl2, 1 mM EDTA, 1 mM DTT pH 7.5. For the analysis of inhibitor-reacted TG2 (open conformation), lysates were incubated with 0.5 mM of irreversible inhibitor R281 (Griffin et al., 2008) and 10 mM CaCl2. The column was washed with 25 ml of buffer and protein was eluted with a linear gradient of increasing NaCl concentration (0-1M) in buffer. Fractions were assayed for TG2 activity and analysed for the presence of TG2 antigen by SDS-PAGE and Western blotting using CUB7402.

NIH 3T3 cells = experiment: Detection of TG2 at cell surface (biotinylation), in ECM and in culture medium of transfected cells; type: cell-based, mouse; conditions: transfected NIH 3T3 cells; for presence on the cell surface: biotinylation and Western blot, vs wild-type TG2
Procedure: Cell surface proteins were labelled by biotinylation as described previously (Wang et al., 2010). Briefly, cell monolayers were rinsed three times with ice-cold PBS pH 8.0 and labelled with 0.8 mM sulfo-NHS-LC-biotin dissolved in PBS pH 8.0 at 4° C. for 20 min. Cells were then washed with 50 mM Tris-HCl, pH 8.0 and lysed with 1% SDS at 4° C. in PBS pH8.0. Following denaturation at 95° C., cell lysates were clarified by centrifugation at 14,000×g at 20° C. and 200 μg of protein was incubated overnight at 4° C. with NEUTRAVIDIN® avidin protein-Agarose resin. After washing three times with PBS pH 8.0, the biotin-labelled proteins were dissolved in 2× Laemmli buffer separated by SDS-PAGE and subjected to Western blotting.
Following transfection, cells were incubated for 24 h with 10% (v/v) serum, which was replaced with 1% (v/v) serum and TG2 expression was allowed to proceed for a further 48 h. Proteins from 1 ml of medium were precipitated by the addition of ice cold 20% (w/v) trichloroacetic acid (TCA) to a final concentration of 10% (w/v) Pelleted proteins were then washed once with ice cold 10% (w/v) TCA, ethanol-acetone (1:1) and acetone, and resuspended in 2× Laemmli buffer (Sigma-Aldrich, UK) and analysed by SDS-PAGE and Western blot analysis using monoclonal anti-TG2 antibody (Cub7402). The remaining cells were detached with 2 mM EDTA in PBS, pH 7.4 and the ECM was extracted with 0.1% (w/v) deoxycholate in PBS, pH 7.4. The residual deoxycholate-insoluble ECM proteins were dissolved in 2× Laemmli buffer for further analysis by SDS-PAGE and Western blotting using Cub7402.

Question: Which “effect of PKCα inhibitors on the compensatory effect of P1 peptide on RGD-induced loss of cell adhesion” value (HOB cells) does the source give for `Cn1c2ccccc2c2c3c(c4c5ccccc5n(CCC#N)c4c21)CNC3=O` [Go6976, reference compound] here?
Answer: inhibition of the compensatory effect

Question: Which “effect of PKCα inhibitors on the compensatory effect of P1 peptide on RGD-induced loss of cell adhesion” value (HOB cells) does the source give for “GENPIYKSAVTTVVNPIYEGKRQIKIWFQNRRMKWKK (listed as Homo sapiens) [GK21, reference compound]” here?
Answer: inhibition of the compensatory effect

Question: For “GRDCSRRSS (listed as Homo sapiens) [fragment peptide derived from P1]”, which “effect on the compensatory effects of TG-FN on attachment and spreading in the presence of RGD” value (HOB cells) is on record?
Answer: able to inhibit the compensatory effects of TG-FN on attachment and spreading, in a dose-dependent manner

Question: Which “effect on the compensatory effects of TG-FN on attachment and spreading in the presence of RGD” value (HOB cells) does the source give for “NPKFLKNA (listed as Homo sapiens) [fragment peptide derived from P1]” here?
Answer: could not abrogate

Question: What about the “concentration at which peptide was inhibitory to cell attachment and spreading” value (HOB cells; HOB cells, tested 100-400 μg/ml) of the same molecule?
Answer: above 200 μg/ml

Question: Which results are given for “HS2: TG2 mutant K205A, R209A (NPKFLKNAGRDCSRRSS)”?
Answer: binding to heparin SEPHAROSE (in words) [1]: lost the capability to bind with high affinity to heparin; NaCl concentration of optimum elution / major peak from heparin SEPHAROSE [1]: 60 mM NaCl; presence in spent culture medium (NIH 3T3 cells; Western blot): detectable; presence in the ECM (NIH 3T3 cells; Western blot): not detectable; presence on the cell surface (NIH 3T3 cells): detected but in reduced amounts

B1: TG2: wild type human tissue transglutaminase expressed in transfected cells (protein)
chain: AEELVLERCDLELETNGRDHHTADLCREKLVVRRGQPFWLTLHFEGRNYEASVDSLTFSVVTGPAPSQEAGTKARFPLRDAVEEGDWTATVVDQQDCTLSLQLTTPANAPIGLYRLSLEASTGYQGSSFVLGHFILLFNAWCPADAVYLDSEEERQEYVLTQQGFIYQGSAKFIKNIPWNFGQFEDGILDICLILLDVNPKFLKNAGRDCSRRSSPVYVGRVVSGMVNCNDDQGVLLGRWDNNYGDGVSPMSWIGSVDILRRWKNHGCQRVKYGQCWVFAAVACTVLRCLGIPTRVVTNYNSAHDQNSNLLIEYFRNEFGEIQGDKSEMIWNFHCWVESWMTRPDLQPGYEGWQALDPTPQEKSEGTYCCGPVPVRAIKEGDLSTKYDAPFVFAEVNADVVDWIQQDDGSVHKSINRSLIVGLKISTKSVGRDEREDITHTYKYPEGSSEEREAFTRANHLNKLAEKEETGMAMRIRVGQSMNMGSDFDVFAHITNNTAEEYVCRLLLCARTVSYNGILGPECGTKYLLNLNLEPFSEKSVPLCILYEKYRDCLTESNLIKVRALLVEPVINSYLLAERDLYLENPEIKIRILGEPKQKRKLVAEVSLQNPLPVALEGCTFTVEGAGLTEEQKTVEIPDPVEAGEEVKVRMDLLPLHMGLHKLVVNFESDKLKAVKGFRNVIIGPA
Question: Which “NaCl concentration of major peak from heparin SEPHAROSE in the presence of GTP” value ([1]; 0.5 mM GTP, compact conformation) does the source give for B1 here?
Answer: about 330 mM NaCl

Question: What about the “NaCl concentration of major peak from heparin SEPHAROSE after reaction with inhibitor R281” value ([1]; 0.5 mM R281, extended conformation) of the same molecule?
Answer: 250 mM NaCl

Question: What about the “NaCl concentration of optimum elution / major peak from heparin SEPHAROSE” value [1] of the same molecule?
Answer: 330 mM NaCl

B2: HS1: TG2 mutant K600A, R601A, K602A (protein, UniProt P21980 2-687, looked up, variant K600A R601A K602A)
Protein-glutamine …: AEELVLERCDLELETNGRDHHTADLCREKLVVRRGQPFWLTLHFEGRNYEASVDSLTFSVVTGPAPSQEAGTKARFPLRDAVEEGDWTATVVDQQDCTLSLQLTTPANAPIGLYRLSLEASTGYQGSSFVLGHFILLFNAWCPADAVYLDSEEERQEYVLTQQGFIYQGSAKFIKNIPWNFGQFEDGILDICLILLDVNPKFLKNAGRDCSRRSSPVYVGRVVSGMVNCNDDQGVLLGRWDNNYGDGVSPMSWIGSVDILRRWKNHGCQRVKYGQCWVFAAVACTVLRCLGIPTRVVTNYNSAHDQNSNLLIEYFRNEFGEIQGDKSEMIWNFHCWVESWMTRPDLQPGYEGWQALDPTPQEKSEGTYCCGPVPVRAIKEGDLSTKYDAPFVFAEVNADVVDWIQQDDGSVHKSINRSLIVGLKISTKSVGRDEREDITHTYKYPEGSSEEREAFTRANHLNKLAEKEETGMAMRIRVGQSMNMGSDFDVFAHITNNTAEEYVCRLLLCARTVSYNGILGPECGTKYLLNLNLEPFSEKSVPLCILYEKYRDCLTESNLIKVRALLVEPVINSYLLAERDLYLENPEIKIRILGEPKQAAALVAEVSLQNPLPVALEGCTFTVEGAGLTEEQKTVEIPDPVEAGEEVKVRMDLLPLHMGLHKLVVNFESDKLKAVKGFRNVIIGPA
Question: Which “binding to heparin SEPHAROSE (in words)” value [1] does the source give for B2 here?
Answer: bound heparin identically to TG2

Question: What about the “presence on the cell surface” value (NIH 3T3 cells) of the same molecule?
Answer: greater levels

B3: C277S: TG2 active site mutant, extended conformation (protein, UniProt P21980 2-687, looked up, variant C277S)
Protein-glutamine …: AEELVLERCDLELETNGRDHHTADLCREKLVVRRGQPFWLTLHFEGRNYEASVDSLTFSVVTGPAPSQEAGTKARFPLRDAVEEGDWTATVVDQQDCTLSLQLTTPANAPIGLYRLSLEASTGYQGSSFVLGHFILLFNAWCPADAVYLDSEEERQEYVLTQQGFIYQGSAKFIKNIPWNFGQFEDGILDICLILLDVNPKFLKNAGRDCSRRSSPVYVGRVVSGMVNCNDDQGVLLGRWDNNYGDGVSPMSWIGSVDILRRWKNHGCQRVKYGQSWVFAAVACTVLRCLGIPTRVVTNYNSAHDQNSNLLIEYFRNEFGEIQGDKSEMIWNFHCWVESWMTRPDLQPGYEGWQALDPTPQEKSEGTYCCGPVPVRAIKEGDLSTKYDAPFVFAEVNADVVDWIQQDDGSVHKSINRSLIVGLKISTKSVGRDEREDITHTYKYPEGSSEEREAFTRANHLNKLAEKEETGMAMRIRVGQSMNMGSDFDVFAHITNNTAEEYVCRLLLCARTVSYNGILGPECGTKYLLNLNLEPFSEKSVPLCILYEKYRDCLTESNLIKVRALLVEPVINSYLLAERDLYLENPEIKIRILGEPKQKRKLVAEVSLQNPLPVALEGCTFTVEGAGLTEEQKTVEIPDPVEAGEEVKVRMDLLPLHMGLHKLVVNFESDKLKAVKGFRNVIIGPA
Question: With B3 as the molecule, how does the “NaCl concentration of optimum elution / major peak from heparin SEPHAROSE” value [1] read?
Answer: 250 mM NaCl
